#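 A five-concentration, 48-hour dose response in 96-well plates underlies each endpoint, interpolated linearly between surrounding concentrations. At the GI50, growth is halved. At the TGI there is no net growth.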 *1 amine or outer side, *2 acyl side, *3 side chain or, on linkers, in order; H or OH if unused. Where a SMILES comes first, the peptide text is derived from it. CO = O=C([*:1])[*:2]
# Key:
# Assay in all cases: NCI-60 cell line screen, 48 h
# A498 renal = test system: A498 renal
# CAKI-1 renal = test system: CAKI-1 renal
# HCT-116 colon = test system: HCT-116 colon
# HS 578T breast = test system: HS 578T breast
# IGROV1 ovarian = test system: IGROV1 ovarian
# NCI-H522 lung = test system: NCI-H522 lung
# SF-268 CNS = test system: SF-268 CNS
# SK-MEL-28 melanoma = test system: SK-MEL-28 melanoma
# TK-10 renal = test system: TK-10 renal
# U251 CNS = test system: U251 CNS
Compound,GI50 (A498 renal) [µM],TGI (A498 renal) [µM],GI50 (CAKI-1 renal) [µM],TGI (CAKI-1 renal) [µM],GI50 (HCT-116 colon) [µM],TGI (HCT-116 colon) [µM],GI50 (HS 578T breast) [µM],TGI (HS 578T breast) [µM],GI50 (IGROV1 ovarian) [µM],TGI (IGROV1 ovarian) [µM],GI50 (NCI-H522 lung) [µM],TGI (NCI-H522 lung) [µM],GI50 (SF-268 CNS) [µM],TGI (SF-268 CNS) [µM],GI50 (SK-MEL-28 melanoma) [µM],TGI (SK-MEL-28 melanoma) [µM],GI50 (TK-10 renal) [µM],TGI (TK-10 renal) [µM],GI50 (U251 CNS) [µM],TGI (U251 CNS) [µM]
COc1cc(/C=C/C(=O)CC(=O)/C=C/c2ccc(OC(=O)CCNC34CC5CC(CC(C5)C3)C4)c(OC)c2)ccc1OC(=O)CCNC12CC3CC(CC(C3)C1)C2,4.61,17.5,2.51,9.33,2.37,9.9,2.85,9.17,3.52,8.08,4.27,16.1,3.01,13.2,3.79,17.2,7.09,22.6,3.39,12
COc1ccc(C(=O)c2ccc(OC)cc2OC)cc1,5.87,> 100,3.75,> 100,3.24,34.7,3.5,31.4,2.61,40.9,1.06,4.38,7.57,> 100,4.05,> 100,5.01,> 100,4.27,> 100
Cc1cc(Nc2nc(N3CCOCC3)nc3ccccc23)n[nH]1,1.01,5.33,1.4,12.3,3.64,27,1.44,4.78,2.12,27.1,17.4,> 100,6.21,35.2,20.4,> 100,1.52,37.3,4.83,21.6
Cc1ccc(-c2nc3nc(-c4ccc(Cl)cc4)nc(N4CCCNCC4)c3o2)cc1,1.88,3.56,1.45,2.88,1.53,2.94,1.93,4.17,1.65,3.15,1.75,3.85,1.92,3.97,1.73,3.13,1.78,3.33,1.85,3.55
C[C@]12CC[C@H]3[C@@H](CC=C4C[C@@H](O)CC[C@@]43C)[C@@H]1C/C(=C\c1cccc(OCCCn3ccnc3)c1)[C@@H]2O,13.4,26.8,13.8,34.5,5.99,21.1,5.16,23.4,16.8,33.6,14.6,27.7,16.8,37.5,12.2,29.1,16.6,31.3,11.8,24.7
CN(C)c1ccc2[nH]c(O)c(C=Nc3ccc(S(N)(=O)=O)cc3)c2c1,> 25,> 25,> 25,> 25,20.3,> 25,> 25,> 25,> 25,> 25,> 25,> 25,> 25,> 25,> 25,> 25,> 25,> 25,> 25,> 25
CC(C)C(NC(=O)C(CCCN=C(N)N)NC(=O)NC(Cc1ccccc1)C(=O)O)C(=O)NC(C=O)CCCN=C(N)N (stereo not drawn) ({Phe-CO}-Arg-Val-Arg-aldehyde; configuration not given here),> 5,> 5,> 5,> 5,> 5,> 5,> 5,> 5,> 5,> 5,> 5,> 5,> 5,> 5,> 5,> 5,> 5,> 5,> 5,> 5
C=C1C(=O)O[C@H]2[C@H]1CC/C(COC(=O)N[C@@H](Cc1c[nH]c3ccccc13)C(=O)OC)=C\CC[C@@]1(C)O[C@@H]21,10.3,22.3,1.2,2.89,1.25,2.79,4.62,28.5,1.22,2.67,1.31,2.84,2.25,6.67,1.66,3.53,1.72,3.19,2.42,7.32
C[C@]12CC[C@@H]3c4ccc(OCC(=O)O)cc4CC[C@H]3[C@@H]1CCC2=O,,> 100,,> 100,,> 100,,> 100,,> 100,,> 100,,> 100,,> 100,,> 100,,> 100
